# Test results taken from patent publication US20230339939A1 (Bayer Aktiengesellschaft, priority 2020, published 2023).
# Like-named read-outs stand apart in the source and are kept apart here.
# What was measured:
# CSNK1A1 = CSNK1A1 (Homo sapiens (Human), UniProt P48729); experiment: CSNK1A1 Assay 2 (ADP-Glo, 1 μM ATP, substrate biotin-Ahx-KRRRAL-pS-VASLPGL); type: biochemical; conditions: median, read-out: CSNK1A1 Assay 2 IC50 [mol/l] (median)
# Description: CSNK1A1-inhibitory activity of compounds of the present invention in presence of 1 μM adenosine-tri-phosphate (ATP) was quantified employing the CSNK1A1 assay as described in the following paragraphs. In essence, the enzyme activity is measured by quantification of the adenosine-di-phosphate (ADP), which is generated as a co-product of the enzyme reaction, via the “ADP-Glo™ Kinase Assay” kit from the company Promega. This detection system works as follows: In a first step the ATP not consumed in the kinase reaction is quantitatively converted to cAMP employing an adenylate cyclase (“ADP-Glo-reagent”), then the adenylate cyclase is stopped and the ADP generated in the kinase reaction converted to ATP which generates in a luciferase-based reaction a glow-luminescence signal (“Kinase Detection Reagent”).
# Recombinant fusion protein of N-terminal Glutathion-S-Transferase (GST) and full-length human CSNK1A1, expressed by baculovirus infected insect cells and purified via Glutathion affinity chromatography, was purchased from Life Technologies (product no. PV4174) and used as enzyme. As substrate for the kinase reaction the biotinylated peptide biotin-Ahx-KRRRAL-pS-VASLPGL (C-terminus in amide form) was used which can be purchased e.g. from the company Biosyntan (Berlin-Buch, Germany).
# For the assay 50 nl of a 100 fold concentrated solution of the test compound in DMSO was pipetted into a white 1536-well microtiter plate (Greiner Bio-One, Frickenhausen, Germany), 2 μL of a solution of CSNK1A1 in aqueous assay buffer [50 mM HEPES pH 7.5, 10% (v/v) glycerol, 10 mM MgCl2, 50 mM NaCl, 1 mM dithiothreitol, 0.01% (w/v) bovine serum albumin, 0.01% (v/v) Triton X-100] were added and the mixture was incubated for 15 min at 22° C. to allow pre-binding of the test compounds to the enzyme before the start of the kinase reaction. […] The concentration of CSNK1A1 was adjusted depending of the activity of the enzyme lot and was chosen appropriate to have the assay in the linear range, a typical concentrations are about 0.0375 ng/μL. The reaction was stopped by the addition of 2.5 μL of “ADP-Glo-reagent” (1:1.5 fold diluted with water) and the resulting mixture was incubated at 22° C. for 1 h to convert the ATP not consumed in the kinase reaction completely […]. Subsequently 2.5 μL of the “kinase detection reagent” (1.2 fold more concentrated than recommended by the producer) were added, the resulting mixture was incubated at 22° C. for 1 h and then the luminescence measured with a suitable measurement instrument (e.g. Viewlux™ from Perkin-Elmer). The amount of emitted light was taken as a measure for the amount of ADP generated and thereby for the activity of the CSNK1A1.
# [1] = biological target: wild-type Epidermal Growth Factor Receptor (EGFR) (Homo sapiens (Human), UniProt P00533); experiment: WT-EGFR Kinase Assay (TR-FRET, 2 mM ATP); type: biochemical
# wild-type Epidermal Growth Factor Receptor (EGFR), sequence (P00533 669-1210): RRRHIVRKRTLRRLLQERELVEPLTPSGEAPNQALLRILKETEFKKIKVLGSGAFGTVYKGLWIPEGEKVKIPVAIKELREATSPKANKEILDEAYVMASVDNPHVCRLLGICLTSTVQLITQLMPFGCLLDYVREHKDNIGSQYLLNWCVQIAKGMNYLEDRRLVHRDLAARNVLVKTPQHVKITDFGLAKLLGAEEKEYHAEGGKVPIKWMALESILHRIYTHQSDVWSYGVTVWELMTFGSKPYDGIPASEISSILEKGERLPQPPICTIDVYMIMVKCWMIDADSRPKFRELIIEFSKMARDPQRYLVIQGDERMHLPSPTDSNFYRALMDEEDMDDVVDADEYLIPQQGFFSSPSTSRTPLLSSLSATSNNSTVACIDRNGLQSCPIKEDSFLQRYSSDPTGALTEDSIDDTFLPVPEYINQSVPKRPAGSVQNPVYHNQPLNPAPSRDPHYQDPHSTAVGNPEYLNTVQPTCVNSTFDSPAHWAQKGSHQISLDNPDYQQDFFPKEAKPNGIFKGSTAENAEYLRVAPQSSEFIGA
# How it was run: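 GST-fused human EGFR fragment (R669-A1210) from Sf9 cells, typically 7.6 pg/μL, pre-incubated with compound 15 min at 22° C in Hepes pH 7.0 buffer with MgCl2, DTT and vanadate; biotinylated peptide substrate. After EDTA stop, phosphopeptide detected by TR-FRET (anti-phosphotyrosine Tb-cryptate/streptavidin-XL665), 665/620 nm emission ratio.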
# [2] = read-out: EGFR Wildtype 2 mM ATP IC50 [mol/l] (median)
# CSNK1A1, sequence (P48729 whole entry): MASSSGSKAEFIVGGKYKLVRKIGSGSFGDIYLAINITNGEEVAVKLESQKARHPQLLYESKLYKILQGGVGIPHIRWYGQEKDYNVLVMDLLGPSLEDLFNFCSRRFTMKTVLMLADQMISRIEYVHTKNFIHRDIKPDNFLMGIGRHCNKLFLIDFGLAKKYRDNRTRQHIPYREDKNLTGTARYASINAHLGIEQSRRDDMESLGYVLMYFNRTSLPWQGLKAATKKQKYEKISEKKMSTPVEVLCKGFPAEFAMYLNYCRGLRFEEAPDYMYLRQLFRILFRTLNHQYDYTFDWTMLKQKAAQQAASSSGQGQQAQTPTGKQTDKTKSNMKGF
Structure (SMILES),IC50 (CSNK1A1) [nM],IC50 ([1]; median) [µM],"IC50 [1, 2] [µM]"
"O=C(Cc1ccc(F)cc1)Nc1cc(-c2[nH]c3cccnc3c2-c2ccccc2)ccn1 [Example 14, 2-(4-fluorophenyl)-N-[4-(3-phenyl-1H-pyrrolo[3,2-b]pyridin-2-yl)pyridin-2-yl]acetamide]",1.04,> 20,19.1
"O=C(Cc1ccc(F)cc1)Nc1cc(-c2[nH]c3cccnc3c2-c2cccc(F)c2)ccn1 [Example 15, 2-(4-fluorophenyl)-N-{4-[3-(3-fluorophenyl)-1H-pyrrolo[3,2-b]pyridin-2-yl]pyridin-2-yl}acetamide]",1.87,,> 20
"O=C(Cc1ccc(F)cc1)Nc1cc(-c2[nH]c3cccnc3c2-c2ncccn2)ccn1 [Example 16, 2-(4-fluorophenyl)-N-{4-[3-(pyrimidin-2-yl)-1H-pyrrolo[3,2-b]pyridin-2-yl]pyridin-2-yl}acetamide]",4.77,17.5,> 20
"O=C(Cc1ccc(F)cc1)Nc1cc(-c2[nH]c3cccnc3c2-c2ccc(Cl)s2)ccn1 [Example 17, N-{4-[3-(5-chlorothiophen-2-yl)-1H-pyrrolo[3,2-b]pyridin-2-yl]pyridin-2-yl}-2-(4-fluorophenyl)acetamide]",1.88,,> 20
"O=C(Cc1ccc(F)cc1)Nc1cc(-c2[nH]c3ccnnc3c2-c2ccccn2)ccn1 [Example 21, 2-(4-fluorophenyl)-N-{4-[7-(pyridin-2-yl)-5H-pyrrolo[3,2-c]pyridazin-6-yl]pyridin-2-yl}acetamide]",1.66,,> 20
"O=C(Cc1ccc(F)cc1)Nc1cc(-c2[nH]c3c(Cl)ccnc3c2-c2ccccn2)ccn1 [Example 22, N-{4-[7-chloro-3-(pyridin-2-yl)-1H-pyrrolo[3,2-b]pyridin-2-yl]pyridin-2-yl}-2-(4-fluorophenyl)acetamide]",1.6,,> 20
"O=C(Cc1ccc(F)cc1)Nc1cc(-c2[nH]c3ccc(Cl)nc3c2-c2ccccn2)ccn1 [Example 23, N-{4-[5-chloro-3-(pyridin-2-yl)-1H-pyrrolo[3,2-b]pyridin-2-yl]pyridin-2-yl}-2-(4-fluorophenyl)acetamide]",0.941,,> 20
"Cc1cc2[nH]c(-c3ccnc(NC(=O)Cc4ccc(F)cc4)c3)c(-c3ccccn3)c2nc1F [Example 27, N-{4-[5-fluoro-6-methyl-3-(pyridin-2-yl)-1H-pyrrolo[3,2-b]pyridin-2-yl]pyridin-2-yl}-2-(4-fluorophenyl)acetamide]",1.6,,> 20
"COc1ccnc2c(-c3ccccn3)c(-c3ccnc(NC(=O)Cc4ccc(F)cc4)c3)[nH]c12 [Example 31, 2-(4-fluorophenyl)-N-{4-[7-methoxy-3-(pyridin-2-yl)-1H-pyrrolo[3,2-b]pyridin-2-yl]pyridin-2-yl}acetamide]",2.5,,> 20
"COc1ccc2[nH]c(-c3ccnc(NC(=O)Cc4ccc(F)cc4)c3)c(-c3ccccn3)c2n1 [Example 32, 2-(4-fluorophenyl)-N-{4-[5-methoxy-3-(pyridin-2-yl)-1H-pyrrolo[3,2-b]pyridin-2-yl]pyridin-2-yl}acetamide]",2.5,,> 20
"C=Cc1ccnc2c(-c3ccccn3)c(-c3ccnc(NC(=O)Cc4ccc(F)cc4)c3)[nH]c12 [Example 33, N-{4-[7-ethenyl-3-(pyridin-2-yl)-1H-pyrrolo[3,2-b]pyridin-2-yl]pyridin-2-yl}-2-(4-fluorophenyl)acetamide]",3.97,,15.1
"CCc1ccnc2c(-c3ccccn3)c(-c3ccnc(NC(=O)Cc4ccc(F)cc4)c3)[nH]c12 [Example 34, N-{4-[7-ethyl-3-(pyridin-2-yl)-1H-pyrrolo[3,2-b]pyridin-2-yl]pyridin-2-yl}-2-(4-fluorophenyl)acetamide]",3.08,,> 20
"O=C(Cc1ccc(F)cc1)Nc1cc(-c2[nH]c3c(C4CC4)ccnc3c2-c2ccccn2)ccn1 [Example 35, N-{4-[7-cyclopropyl-3-(pyridin-2-yl)-1H-pyrrolo[3,2-b]pyridin-2-yl]pyridin-2-yl}-2-(4-fluorophenyl)acetamide]",2.79,,> 20
"COCCc1ccnc2c(-c3ccccn3)c(-c3ccnc(NC(=O)Cc4ccc(F)cc4)c3)[nH]c12 [Example 36, 2-(4-fluorophenyl)-N-{4-[7-(2-methoxyethyl)-3-(pyridin-2-yl)-1H-pyrrolo[3,2-b]pyridin-2-yl]pyridin-2-yl}acetamide]",14.8,,> 20
"CN1CCN(c2ccnc3c(-c4ccccn4)c(-c4ccnc(NC(=O)Cc5ccc(F)cc5)c4)[nH]c23)CC1 [Example 38, 2-(4-fluorophenyl)-N-{4-[7-(4-methylpiperazin-1-yl)-3-(pyridin-2-yl)-1H-pyrrolo[3,2-b]pyridin-2-yl]pyridin-2-yl}acetamide]",3.32,,> 20
"CN1CCC(N(C)c2ccnc3c(-c4ccccn4)c(-c4ccnc(NC(=O)Cc5ccc(F)cc5)c4)[nH]c23)CC1 [Example 39, 2-(4-fluorophenyl)-N-(4-{7-[methyl(1-methylpiperidin-4-yl)amino]-3-(pyridin-2-yl)-1H-pyrrolo[3,2-b]pyridin-2-yl}pyridin-2-yl)acetamide]",3.49,,1.09
"O=C(Cc1ccc(F)cc1)Nc1cc(-c2[nH]c3c(N4CCCC4=O)ccnc3c2-c2ccccn2)ccn1 [Example 40, 2-(4-fluorophenyl)-N-{4-[7-(2-oxopyrrolidin-1-yl)-3-(pyridin-2-yl)-1H-pyrrolo[3,2-b]pyridin-2-yl]pyridin-2-yl}acetamide]",6.26,,> 20
"Cc1cc(CC(=O)Nc2cc(-c3[nH]c4cccnc4c3-c3ccccn3)ccn2)ccc1F [Example 41, 2-(4-fluoro-3-methylphenyl)-N-{4-[3-(pyridin-2-yl)-1H-pyrrolo[3,2-b]pyridin-2-yl]pyridin-2-yl}acetamide]",4.03,,> 20
"O=C(Cc1ccc(Cl)cc1)Nc1cc(-c2[nH]c3cccnc3c2-c2ccccn2)ccn1 [Example 42, 2-(4-chlorophenyl)-N-{4-[3-(pyridin-2-yl)-1H-pyrrolo[3,2-b]pyridin-2-yl]pyridin-2-yl}acetamide]",1.23,,> 20
"O=C(Cc1ccccc1)Nc1cc(-c2[nH]c3cccnc3c2-c2ccccn2)ccn1 [Example 46, 2-phenyl-N-(4-(3-(pyridin-2-yl)-1H-pyrrolo[3,2-b]pyridin-2-yl)pyridin-2-yl)acetamide]",2.25,,> 20
"O=C(Cc1ccc(F)cc1)Nc1cc(-c2[nH]c3cccnc3c2-c2ncccn2)ccn1 [Example 51, 2-(4-fluorophenyl)-N-{4-[3-(pyrimidin-2-yl)-1H-pyrrolo[3,2-b]pyridin-2-yl]pyridin-2-yl}acetamide]",7.93,,> 20
"CC(C(=O)Nc1cc(-c2[nH]c3cc(Cl)cnc3c2-c2ccccn2)ccn1)c1ccc(F)cc1 (stereo not shown) [Example 52, N-{4-[6-chloro-3-(pyridin-2-yl)-1H-pyrrolo[3,2-b]pyridin-2-yl]pyridin-2-yl}-2-(4-fluorophenyl)propanamide]",6.26,,> 20
